Measured values taken from ChEMBL document CHEMBL1158651, “Centaurepensin: A Cytotoxic Constituent of Centaurea solstitialis and C. repens (Asteraceae)” (1979).
Converted amounts (≈) assume the structure as drawn.

Assay: Cytotoxicity against human 9KB cells
Assay type: functional
Details: read-out: ED50 (the source's name)

C=C1C(=O)O[C@H]2[C@H]1[C@@H](OC(=O)[C@](C)(O)CCl)CC(=C)[C@@H]1C[C@H](O)[C@](O)(CCl)[C@H]21 [CENTAUREPENSIN]
EC50: 1.7 µg/mL (≈ 3.91 µM)
